{"source": "patent US20240269125A1", "about": "“METHODS OF TREATING CORONAVIRUS INFECTIONS BY CO-ADMINISTERING AN FKBP LIGAND AND AN ANTIVIRAL AGENT” (priority 2020, published 2024)", "key": {"[1]": {"tested_on": "SARS CoV-2 (USA-WA1/2020)", "assay": "organism not typed", "assay_type": "cell-based"}, "in vitro [2]": {"assay": "in vitro", "conditions": "African green monkey"}, "Vero E6 cells": {"tested_on": "Vero E6 cells", "conditions": "Table 1, Example 6; 50% cell death in absence of virus, day 4"}, "[3]": {"tested_on": "SARS CoV-2 (USA-WA1/2020)", "assay": "organism not typed", "assay_type": "cell-based", "conditions": "for reduction in SARS COV-2 virus: Example 6"}, "[4]": {"tested_on": "SARS COV-2 (USA_WA1/2020)", "assay_type": "cell-based", "conditions": "Example 10; remdesivir alone up to 6,666.667 nM; FK1706 alone up to 60,000 nM"}, "in vitro [5]": {"assay": "in vitro", "conditions": "African green monkey, TC50, Table 1, Example 6"}, "[6]": {"conditions": "Example 9, antiviral alone at sub-therapeutic level (molnupiravir 0.3 μM; remdesivir 3 μM)"}, "[7]": {"conditions": "TC50, Table 4, Example 9, single conc. (sub-therapeutic antiviral alone)"}, "[8]": {"conditions": "TC50, Table 2, Example 7, 50% cell death in absence of virus, day 3"}}, "note": "Like-named read-outs stand apart in the source and are kept apart here."}
{"smiles": "CC(C)C(=O)OC[C@H]1O[C@@H](n2ccc(=NO)[nH]c2=O)[C@H](O)[C@@H]1O", "note": "[Molnupiravir, ((2R,3S,4R,5R)-3,4-dihydroxy-5-(4-(hydroxyimino)-2-oxo-3,4-dihydropyrimidin-1(2H)-yl)tetrahydrofuran-2-yl)methyl isobutyrate]", "values": [{"measurement": "reduction in SARS COV-2 virus", "setting": "[1]; Example 8, molnupiravir alone 0.3 μM", "value": "4-13%"}, {"measurement": "reduction in SARS COV-2 virus", "setting": "[1]; [6]", "value": "4-13%"}, {"measurement": "EC50", "setting": "[1]; Table 3, Example 8, single conc. (0.3 μM molnupiravir alone), read-out: EC50", "value": "> 0.3", "unit": "µM"}, {"measurement": "EC50", "setting": "[1]; Table 4, Example 9, single conc. (sub-therapeutic antiviral alone), read-out: EC50", "value": "> 0.3", "unit": "µM"}, {"measurement": "CC50", "setting": "in vitro [2]; TC50, Table 3, Example 8, single conc. (0.3 μM molnupiravir alone)", "value": "> 0.3", "unit": "µM"}, {"measurement": "CC50", "setting": "in vitro [2]; [7]", "value": "> 0.3", "unit": "µM"}]}
{"smiles": "O=C(C(=O)N1CCCC[C@H]1C(=O)NCCCc1ccccc1)c1ccccc1", "note": "[ElteN378]", "values": [{"measurement": "reduction in SARS COV-2 virus", "setting": "[1]; Example 7, ElteN378 0.12-30 μM, alone or co-administered with fixed antiviral", "value": "0-7%"}, {"measurement": "EC50", "setting": "[1]; Vero C1008, 72 h, Table 2, Example 7, Vero E6, concentration inhibiting CPE by 50%, day 3, read-out: EC50", "value": "> 30", "unit": "µM"}, {"measurement": "CC50", "setting": "in vitro [2]; [8]", "value": "> 30", "unit": "µM"}]}
{"smiles": "CO[C@H]1C[C@@H](C)C/C(C)=C/[C@@H](CC(C)=O)C(=O)C[C@H](O)[C@@H](C)C(/C(C)=C/[C@@H]2CC[C@@H](O)[C@H](OC)C2)OC(=O)C2CCCCC2C(=O)C(=O)[C@]2(O)O[C@H]1[C@@H](OC)C[C@H]2C", "note": "(some centres unmarked) [FK1706]", "values": [{"measurement": "TC50", "setting": "Vero E6 cells", "value": ">90", "unit": "µM"}, {"measurement": "reduction in SARS COV-2 virus", "setting": "[3]; FK1706 11-90 μM, alone or co-administered with fixed antiviral", "value": "0-7%"}, {"measurement": "EC50", "setting": "[3]; Vero C1008, 96 h, Table 1, Example 6, Vero E6, concentration inhibiting CPE by 50%, day 4, read-out: EC50", "value": "> 90", "unit": "µM"}, {"measurement": "reduction in SARS COV-2 virus", "setting": "[1]; Example 8, FK1706 alone 2.85-90 μM", "value": "0-10%"}, {"measurement": "EC50", "setting": "[1]; Vero C1008, 72 h, Table 3, Example 8, Vero E6, day 3, read-out: EC50", "value": "> 90", "unit": "µM"}, {"measurement": "antiviral activity as single agent", "setting": "[4]", "value": "no significant antiviral activity"}, {"measurement": "CC50", "setting": "in vitro [2]; TC50, Table 3, Example 8, day 3", "value": "> 90", "unit": "µM"}]}
{"smiles": "CCC(C)(C)C(=O)C(=O)N1CCC[C@H]1C(=O)O", "note": "[GPI-1485]", "values": [{"measurement": "reduction in SARS COV-2 virus", "setting": "[1]; Example 9, GPI-1485 40-320 μM, alone or co-administered with fixed antiviral", "value": "0-6%"}, {"measurement": "EC50", "setting": "[1]; Vero C1008, 72 h, Table 4, Example 9, Vero E6, day 3", "value": "> 320", "unit": "µM"}, {"measurement": "CC50", "setting": "in vitro [2]; TC50, Table 4, Example 9, day 3", "value": "> 320", "unit": "µM"}]}
{"smiles": "CCC(CC)COC(=O)[C@H](C)N[P@](=O)(OC[C@H]1O[C@@](C#N)(c2ccc3c(N)ncnn23)[C@H](O)[C@@H]1O)Oc1ccccc1", "note": "[Remdesivir]", "values": [{"measurement": "EC50", "setting": "[3]", "value": "> 3", "unit": "µM"}, {"measurement": "reduction in SARS COV-2 virus", "setting": "[3]; antiviral alone at sub-therapeutic level (remdesivir 3 μM; M128533 1 μg/mL)", "value": "5-14%"}, {"measurement": "EC50", "setting": "[3]; Vero C1008, 96 h", "value": 3.63, "unit": "µM"}, {"measurement": "reduction in SARS COV-2 virus", "setting": "[1]; Example 7, antiviral alone at sub-therapeutic level (remdesivir 3 μM; M128533 1 μg/mL)", "value": "2-19%"}, {"measurement": "reduction in SARS COV-2 virus", "setting": "[1]; [6]", "value": "20-30%"}, {"measurement": "EC50", "setting": "[1]; Table 2, Example 7, single conc. (sub-therapeutic antiviral alone)", "value": "> 3", "unit": "µM"}, {"measurement": "EC50", "setting": "[1]; Table 4, Example 9, single conc. (sub-therapeutic antiviral alone)", "value": "> 0.3", "unit": "µM"}, {"measurement": "EC50", "setting": "[1]; Vero C1008, 72 h, Table 2, Example 7, Vero E6, concentration inhibiting CPE by 50%, day 3", "value": 7.31, "unit": "µM"}, {"measurement": "CC50", "setting": "in vitro [2]; [8]", "value": "> 100", "unit": "µM"}, {"measurement": "CC50", "setting": "in vitro [2]; TC50, Table 2, Example 7, single conc. (sub-therapeutic antiviral alone)", "value": "> 3", "unit": "µM"}, {"measurement": "CC50", "setting": "in vitro [2]; [7]", "value": "> 0.3", "unit": "µM"}, {"measurement": "CC50", "setting": "in vitro [5]; 50% cell death in absence of virus, day 4", "value": "> 100", "unit": "µM"}, {"measurement": "CC50", "setting": "in vitro [5]; single conc. (sub-therapeutic antiviral alone)", "value": "> 3", "unit": "µM"}]}
